System: HepaRG
Experiment: LDH release cytotoxicity, % of total lysis control; higher = more cytotoxic
Conditions: 48 h
Summary of the method: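 Single-lot HepaRG cells on collagen I-coated 96-well plates were exposed for 48 h in duplicate, in serum-free induction medium with 0.5% DMSO, to eight-point half-log series (test chemicals top 100 µM). Total lysis wells received 0.1% Triton X, and LDH leakage into 50 µL spent medium was read as resorufin fluorescence (CytoTox-ONE, Tecan Safire). Percent cytotoxicity was normalized to on-plate vehicle and total lysis controls and averaged over the duplicates.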

COP(=O)(NC(C)=O)SC (configuration not stated) [Acephate]
Conditions | LDH release cytotoxicity [%]
0.03162 µM | -0.866
0.1 µM | -0.804
0.3162278 µM | -0.558
1 µM | -0.625
3.16228 µM | -0.512
10 µM | 0.394
31.6228 µM | 0.786
100 µM | 1.92

CCCCc1ccc2c(n1)C(c1ccc(OC)cc1CC(C)C(=O)O)C(C(=O)O)C2c1ccc2c(c1)OCO2 (configuration not stated) [MK-547]
Conditions | LDH release cytotoxicity [%]
0.03162 µM | -0.553
0.1 µM | -1.23
0.3162278 µM | -0.915
1 µM | -1.66
3.16228 µM | -0.888
10 µM | -0.832
31.6228 µM | -0.204
100 µM | 0.0481

CC1CN(N=Cc2cccnc2)C(=O)N=N1 (configuration not stated) [Pymetrozine]
Conditions | LDH release cytotoxicity [%]
0.03162 µM | 4.48
0.1 µM | 4.64
0.3162278 µM | 4.33
1 µM | 3.28
3.16228 µM | 5.3
10 µM | 4.29
31.6228 µM | 6.57
100 µM | 9.47

CC1C(c2ccc(Cl)cc2)SC(=O)N1C(=O)NC1CCCCC1 (configuration not stated) [Hexythiazox]
Conditions | LDH release cytotoxicity [%]
0.03162 µM | -0.985
0.1 µM | -2.1
0.3162278 µM | -1.93
1 µM | -1.79
3.16228 µM | -1.86
10 µM | -2.05
31.6228 µM | 1.36
100 µM | 6.86

CS(=O)(=O)c1cc(C(F)(F)F)ccc1C(=O)c1cnoc1C1CC1 [Isoxaflutole]
Conditions | LDH release cytotoxicity [%]
0.03162 µM | -0.368
0.1 µM | -1.2
0.3162278 µM | -2.1
1 µM | -1.58
3.16228 µM | -0.928
10 µM | -0.455
31.6228 µM | -0.687
100 µM | 0.934

CC1(C)C(C=C(Cl)Cl)C1C(=O)OC(C#N)c1cccc(Oc2ccccc2)c1 (configuration not stated) [Cypermethrin]
Conditions | LDH release cytotoxicity [%]
0.03162 µM | -0.819
0.1 µM | -1.77
0.3162278 µM | -1.92
1 µM | -2.15
3.16228 µM | -1.45
10 µM | -1.44
31.6228 µM | -0.803
100 µM | -0.801

COc1cccc(-c2ccc(C=CCN3CCCCCC3)cc2Cl)c1
Conditions | LDH release cytotoxicity [%]
0.0286186 µM | -0.404
0.0905 µM | -2.18
0.2861861 µM | -2.02
0.905 µM | -1.85
2.86186 µM | -1.3
9.05 µM | -0.654
28.618613 µM | 0.285
90.5 µM | 71.6

OC[C@@H](O)[C@@H](O)[C@H](O)[C@H](O)CO [D-Mannitol]
Conditions | LDH release cytotoxicity [%]
0.031623 µM | -0.135
0.1 µM | -2.88
0.316228 µM | -2.85
1 µM | -2.73
3.16228 µM | -2.39
10 µM | -1.31
31.6228 µM | 0.669
100 µM | 3.29

CN1CCN(c2ccccc2C=C2SCCN(c3ccc(Cl)c(Cl)c3)C2=O)CC1 [Elzasonan]
Conditions | LDH release cytotoxicity [%]
0.03162 µM | 0.236
0.1 µM | 0.483
0.3162278 µM | 0.649
1 µM | -0.238
3.16228 µM | -0.446
10 µM | 0.355
31.6228 µM | 9.77
100 µM | 88.8

O=C(NC(=O)c1c(F)cccc1F)Nc1cc(Cl)c(OC(F)(F)C(F)F)c(Cl)c1 [Hexaflumuron]
Conditions | LDH release cytotoxicity [%]
0.03162 µM | -0.197
0.1 µM | -1
0.3162278 µM | -1.85
1 µM | -1.29
3.16228 µM | -1.24
10 µM | -0.349
31.6228 µM | -0.129
100 µM | 4.86

Clc1ccc(Cl)cc1 [1,4-Dichlorobenzene]
Conditions | LDH release cytotoxicity [%]
0.03162 µM | -0.401
0.1 µM | -1.22
0.3162278 µM | -1.55
1 µM | -0.354
3.16228 µM | -0.734
10 µM | -0.586
31.6228 µM | 0.224
100 µM | 5.07

O=C(O)c1ccc2c(c1)nc(C(=O)NC1CCN(C3CC3)CC1)n2Cc1cc(-c2ccc(Cl)s2)on1 [AVE3247]
Conditions | LDH release cytotoxicity [%]
0.0075895 µM | -0.875
0.024 µM | -2.04
0.0758947 µM | -2.37
0.24 µM | -2.63
0.758947 µM | -2.23
2.4 µM | -1.94
7.58947 µM | -1.68
24 µM | -0.941

c1ccc2c(c1)Cc1ccccc1-2 [Fluorene]
Conditions | LDH release cytotoxicity [%]
0.03162 µM | -1.56
0.1 µM | -1
0.3162278 µM | -0.941
1 µM | -0.74
3.16228 µM | -0.5867
10 µM | -1.05
31.6228 µM | -0.324
100 µM | -0.2

O=P(OCCCl)(OCCCl)OCCCl [Tris(2-chloroethyl) phosphate]
Conditions | LDH release cytotoxicity [%]
0.03162 µM | 0.00945
0.1 µM | -0.629
0.3162278 µM | -0.615
1 µM | -1.15
3.16228 µM | -0.623
10 µM | -0.4
31.6228 µM | 0.187
100 µM | 0.367

COc1cc(Cl)c(OC)cc1Cl [Chloroneb]
Conditions | LDH release cytotoxicity [%]
0.03162 µM | -1.52
0.1 µM | -0.787
0.3162278 µM | -1.49
1 µM | -2.31
3.16228 µM | -1.57
10 µM | -0.979
31.6228 µM | -0.777
100 µM | 0.671

COP(N)(=O)SC (configuration not stated) [Methamidophos]
Conditions | LDH release cytotoxicity [%]
0.03162 µM | 5.78
0.1 µM | 2.73
0.3162278 µM | 2.4
1 µM | 3.67
3.16228 µM | 3.79
10 µM | 3.76
31.6228 µM | 5.99
100 µM | 6.57

CN=C=S [Methyl isothiocyanate]
Conditions | LDH release cytotoxicity [%]
0.031623 µM | -2.69
0.1 µM | -1.72
0.316228 µM | -3.56
1 µM | -4.608
3.16228 µM | -3.71
10 µM | -2.9
31.6228 µM | 0.153
100 µM | 49.2

Oc1ccc(C(c2ccc(O)cc2)C(Cl)(Cl)Cl)cc1 [2,2-Bis(4-hydroxyphenyl)-1,1,1-trichloroethane]
Conditions | LDH release cytotoxicity [%]
0.0320971 µM | 1.05
0.1015 µM | 0.207
0.320971 µM | 0.656
1.015 µM | 1.23
3.2097118 µM | 0.563
10.15 µM | 0.192
32.0971 µM | 1.16
101.5 µM | 2.4

CCOCCOCCO [2-(2-Ethoxyethoxy)ethanol]
Conditions | LDH release cytotoxicity [%]
0.03162 µM | 0.116
0.1 µM | -1.88
0.3162278 µM | -1.03
1 µM | -1.82
3.16228 µM | -1.06
10 µM | -0.761
31.6228 µM | -0.843
100 µM | -0.504
